Earlier results in patent publication US8584539B2, “Delivery device for dispensing pharmaceutical dosage forms into dissolution testing apparatus” (Rohm and Haas Company, priority 2010, dated 2013).
Read-outs that look alike come from different tables or passages of the source.

solubility (low pH of the stomach): essentially insoluble | solubility (near neutral conditions of the upper GI): soluble
SMILES: O=C(O)Cc1ccccc1Nc1c(Cl)cccc1Cl [diclofenac sodium]
